In US20210253575A1, “PYRROLIDINE AMINE COMPOUNDS FOR THE TREATMENT OF AUTOIMMUNE DISEASE” (Hoffmann-La Roche Inc., priority 2018, published 2021) one finds IC50 data, which are given here for 23 molecules.

The assay has as its target T1, human TLR9 (Homo sapiens, UniProt Q9NR96).
T1 sequence (Q9NR96 26-1032): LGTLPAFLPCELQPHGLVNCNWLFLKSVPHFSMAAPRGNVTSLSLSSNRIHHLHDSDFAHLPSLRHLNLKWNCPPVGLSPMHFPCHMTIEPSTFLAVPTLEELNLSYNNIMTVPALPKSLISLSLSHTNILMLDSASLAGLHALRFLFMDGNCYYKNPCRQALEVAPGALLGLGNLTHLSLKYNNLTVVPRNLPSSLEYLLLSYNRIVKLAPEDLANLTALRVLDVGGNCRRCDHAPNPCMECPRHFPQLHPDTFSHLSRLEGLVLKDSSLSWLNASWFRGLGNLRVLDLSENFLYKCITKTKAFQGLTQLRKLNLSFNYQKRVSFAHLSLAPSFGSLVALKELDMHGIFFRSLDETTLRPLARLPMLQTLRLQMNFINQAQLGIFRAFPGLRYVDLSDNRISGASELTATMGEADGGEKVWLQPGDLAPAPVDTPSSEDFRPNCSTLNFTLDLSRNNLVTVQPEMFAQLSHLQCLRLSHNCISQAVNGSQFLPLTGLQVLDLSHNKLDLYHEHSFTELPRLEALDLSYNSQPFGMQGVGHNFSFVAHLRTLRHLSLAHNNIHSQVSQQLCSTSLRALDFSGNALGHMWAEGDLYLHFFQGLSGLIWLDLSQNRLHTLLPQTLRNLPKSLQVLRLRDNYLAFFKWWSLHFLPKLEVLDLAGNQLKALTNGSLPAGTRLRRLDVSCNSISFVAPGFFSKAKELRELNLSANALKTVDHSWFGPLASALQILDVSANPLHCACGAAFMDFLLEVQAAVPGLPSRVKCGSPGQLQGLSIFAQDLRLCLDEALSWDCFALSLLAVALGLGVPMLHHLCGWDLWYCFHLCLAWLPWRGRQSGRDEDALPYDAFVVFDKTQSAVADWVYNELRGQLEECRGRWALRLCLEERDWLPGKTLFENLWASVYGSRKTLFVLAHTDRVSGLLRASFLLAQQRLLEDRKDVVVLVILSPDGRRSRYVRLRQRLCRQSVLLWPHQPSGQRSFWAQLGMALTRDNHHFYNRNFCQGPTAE
The experiment in a line: HEK293-Blue-hTLR-9 cells assay (SEAP reporter, ODN2006 stimulation). Type of assay: cell-based. Particulars: HEK293-Blue-hTLR9 cells, ODN2006 ligand, 20 hrs incubation. On the procedure:
The following tests were carried out in order to determine the activity of the compounds of formula (I) in HEK293-Blue-hTLR-7/8/9 cells assay.
HEK293-Blue-hTLR-9 Cells Assay:
A stable HEK293-Blue-hTLR-9 cell line was purchased from InvivoGen (Cat. #: hkb-htlr9, San Diego, Calif., USA). These cells were originally designed for studying the stimulation of human TLR9 by monitoring the activation of NF-κB. A SEAP (secreted embryonic alkaline phosphatase) reporter gene was placed under the control of the IFN-β minimal promoter fused to five NF-κB and AP-1-binding sites. The SEAP was induced by activating NF-κB and AP-1 via stimulating HEK-Blue hTLR9 cells with TLR9 ligands. Therefore the reporter expression was declined by TLR9 antagonist under the stimulation of a ligand, such as ODN2006 (Cat. #: tlrl-2006-1, Invivogen, San Diego, Calif., USA), for incubation of 20 hrs. The cell culture supernatant SEAP reporter activity was determined using QUANTI-Blue™ kit (Cat. #: rep-qb1, Invivogen, San Diego, Calif., USA) at a wavelength of 640 nm, a detection medium that turns purple or blue in the presence of alkaline phosphatase.
HEK293-Blue-hTLR9 cells were incubated at a density of 250,000˜450,000 cells/mL in a volume of 170 μL in a 96-well plate in Dulbecco's Modified Eagle's medium (DMEM) containing 4.5 g/L glucose, 50 U/mL penicillin, […], […], 2 mM L-glutamine, 10% (v/v) heat-inactivated fetal bovine serum with addition of 20 μL test compound in a serial dilution in the presence of final DMSO at 1% and 10 μL of 20 uM ODN2006 in above DMEM, perform incubation under 37° C. in a CO2incubator for 20 hrs. Then 20 μL of the superatant from each well was incubated with 180 μL Quanti-blue substrate solution at 37° C. for 2 hrs and the absorbance was read at 620˜655 nm using a spectrophotometer. The signalling pathway that TLR9 activation leads to downstream NF-κB activation has been widely accepted, and therefore similar reporter assay was modified for evaluating TLR9 antagonist.
As to `N#Cc1ccc(N2C[C@H](CN3C4CCC3CC(N)C4)[C@@H](C(F)(F)F)C2)c2nccnc12` (stereo partly drawn) [Example 63, 8-[(3S,4R)-3-[(3-amino-8-azabicyclo[3.2.1]octan-8-yl)methyl]-4-(trifluoromethyl)pyrrolidin-1-yl]quinoxaline-5-carbonitrile], the IC50 (commonly the concentration that inhibits the measured activity by half) turned out to be 294 nM.

`N#Cc1ccc(N2C[C@H](CN3CCC(N4CCNCC4)CC3)[C@@H](C(F)(F)F)C2)c2cccnc12` [Example 52, 5-[(3S,4R)-3-[(4-piperazin-1-yl-1-piperidyl)methyl]-4-(trifluoromethyl)pyrrolidin-1-yl]quinoline-8-carbonitrile] gave an IC50 of 208 nM. This IC50 and that of the molecule before are within 1.5-fold of each other.

For the molecule `N#Cc1ccc(N2C[C@H](CN3CCC(CCN)CC3)[C@@H](C(F)(F)F)C2)c2nccnc12` [Example 79, 8-[(3S,4R)-3-[[4-(2-aminoethyl)-1-piperidyl]methyl]-4-(trifluoromethyl)pyrrolidin-1-yl]quinoxaline-5-carbonitrile], the half-inhibitory concentration (IC50) came out at 248 nM.

In the case of `CC1(N)CCN(C[C@H]2CN(c3ccc(C#N)c4nccnc34)C[C@@H]2C(F)(F)F)CC1` [Example 12, 8-[(3S,4R)-3-[(4-amino-4-methyl-1-piperidyl)methyl]-4-(trifluoromethyl)pyrrolidin-1-yl]quinoxaline-5-carbonitrile], the IC50 was 219 nM.

`N#Cc1ccc(N2CC(CN3CCC(N4CCCCC4)CC3)C3(CC3)C2)c2nccnc12` (centres unmarked) [Example 11, 8-[7-[[4-(1-Piperidyl)-1-piperidyl]methyl]-5-azaspiro[2.4]heptan-5-yl]quinoxaline-5-carbonitrile]: the IC50 was 125 nM.

`N#Cc1ccc(N2C[C@H](CN3CCC4(CCNCC4)CC3)[C@@H](C(F)(F)F)C2)c2cccnc12` [Example 2, 5-[(3S,4R)-3-(3,9-diazaspiro[5.5]undecan-3-ylmethyl)-4-(trifluoromethyl)pyrrolidin-1-yl]quinoline-8-carbonitrile] displayed an IC50 of 76 nM.

`N#Cc1ccc(N2C[C@H](CN3CCC4(CCCNC4)C3)[C@@H](C(F)(F)F)C2)c2cccnc12` (stereo partly drawn) [Example 6, 5-[(3S,7R)-3-(2,9-diazaspiro[4.5]decan-2-ylmethyl)-4-(trifluoromethyl)pyrrolidin-1-yl]quinoline-8-carbonitrile]: the half-inhibitory concentration (IC50) came to 136 nM.

As to `N#Cc1ccc(N2C[C@@H](CN3CCC4(CCNCC4)CC3)[C@H](C(F)F)C2)c2cccnc12` (relative stereo) [Example 27, 5-[Trans-3-(3,9-diazaspiro[5.5]undecan-3-ylmethyl)-4-(difluoromethyl)pyrrolidin-1-yl]quinoline-8-carbonitrile], the IC50 was found to be 32 nM.

Turning to `CC(C)[C@@H]1CN(c2ccc(C#N)c3ncccc23)C[C@H]1CN1CCC2(CCNC2)C1` (relative stereo) [Example 44, 5-[Trans-3-(2,7-diazaspiro[4.4]nonan-2-ylmethyl)-4-isopropyl-pyrrolidin-1-yl]quinoline-8-carbonitrile], the midpoint of inhibition, the IC50, lay at 91 nM. This IC50 lies about 2.8-fold higher than the previous one.

Regarding `C[C@@H]1CN(c2ccc(C(F)(F)F)c3nccnc23)C[C@H]1CN1CCC(N2CCCCC2)CC1` (relative stereo) [Example 33, 5-[Trans-3-methyl-4-[[4-(1-piperidyl)-1-piperidyl]methyl]pyrrolidin-1-yl]-8-(trifluoromethyl)quinoxaline], the IC50 worked out at 863 nM. Against the preceding molecule, the IC50 is about 9.5-fold higher.

Turning to `N#Cc1ccc(N2CC(CN3CC4CCNCC43)C3(CC3)C2)c2nccnc12` (centres unmarked) [Example 50, 8-[7-(3,8-Diazabicyclo[4.2.0]octan-8-ylmethyl)-5-azaspiro[2.4]heptan-5-yl]quinoxaline-5-carbonitrile], the midpoint of inhibition, the IC50, lay at 259 nM.

`N#Cc1ccc(N2C[C@H](CNC3CCNCC3)[C@@H](C(F)(F)F)C2)c2nccnc12` [Example 71, 8-[(3S,4R)-3-[(4-piperidylamino)methyl]-4-(trifluoromethyl)pyrrolidin-1-yl]quinoxaline-5-carbonitrile] registered an IC50 of 87 nM.

`N#Cc1ccc(N2CC(CNC3CCCNCC3)C3(CC3)C2)c2nccnc12` (centres unmarked) [Example 39, 8-[7-[(Azepan-4-ylamino)methyl]-5-azaspiro[2.4]heptan-5-yl]quinoxaline-5-carbonitrile] yielded an IC50 of 97 nM.

With `N#Cc1ccc(N2C[C@H](CN3CCC(N4CCCCC4)CC3)[C@@H](C(F)(F)F)C2)c2cccnc12` [Example 10, 5-[(3S,4R)-3-[[4-(1-piperidyl)-1-piperidyl]methyl]-4-(trifluoromethyl)pyrrolidin-1-yl]quinoline-8-carbonitrile], it took 834 nM to reach half-maximal inhibition (IC50).

Turning to `N#Cc1ccc(N2C[C@H](CN3CCC4(CCCNC4)CC3)[C@@H](C(F)(F)F)C2)c2nccnc12` [Example 45, 8-[(3S,4R)-3-(2,9-diazaspiro[5.5]undecan-9-ylmethyl)-4-(trifluoromethyl)pyrrolidin-1-yl]quinoxaline-5-carbonitrile], the IC50 came to 224 nM. Compared with the last molecule, the IC50 is about 3.7-fold lower.

Regarding `N#Cc1ccc(N2CC(CN3CCC4(CCCNC4)C3)C3(CC3)C2)c2nccnc12` (centres unmarked) [Example 22, 8-[7-(2,9-Diazaspiro[4.5]decan-2-ylmethyl)-5-azaspiro[2.4]heptan-5-yl]quinoxaline-5-carbonitrile], the IC50 amounted to 153 nM.

`C[C@@H]1CN(c2ccc(C(F)(F)F)c3nccnc23)C[C@H]1CNC1CCCNCC1` (some centres unmarked) [Example 40] showed an IC50 of 685 nM.

`CC1(N)CCN(CC2CN(c3ccc(C#N)c4nccnc34)CC23CC3)CC1` (centres unmarked) [Example 7, 8-[7-[(4-Amino-4-methyl-1-piperidyl)methyl]-5-azaspiro[2.4]heptan-5-yl]quinoxaline-5-carbonitrile] gave an IC50 of 77 nM. This IC50 is about 8.9-fold lower than that of the molecule before.

`N#Cc1ccc(N2CC(CN3CCC4(CCNC4)C3)C3(CC3)C2)c2cccnc12` (centres unmarked) [Example 43, 5-[7-(2,7-Diazaspiro[4.4]nonan-2-ylmethyl)-5-azaspiro[2.4]heptan-5-yl]quinoline-8-carbonitrile] registered an IC50 of 62 nM.

`C[C@H]1CN(c2ccc(C#N)c3ncccc23)C[C@@H]1CN1CCC2(CCNC2)C1` (stereo partly drawn) [Example 35, 5-[(3S,4R)-3-(2,7-diazaspiro[4.4]nonan-2-ylmethyl)-4-methyl-pyrrolidin-1-yl]quinoline-8-carbonitrile] yielded an IC50 of 50 nM. This IC50 and that of the molecule before are within 1.5-fold of each other.

The molecule `N#Cc1ccc(N2C[C@H](CN3CCCC(C(N)=O)C3)[C@@H](C(F)(F)F)C2)c2nccnc12` (stereo partly drawn) [Example 69, 1-[[(3S,4R)-1-(S-cyanoquinoxalin-5-yl)-4-(trifluoromethyl)pyrrolidin-3-yl]methyl]piperidine-3-carboxamide] registered a half-inhibitory concentration (IC50) of 15700 nM.

Regarding `N#Cc1ccc(N2C[C@H](CN3CCC4(CC3)CNCCO4)[C@@H](C(F)(F)F)C2)c2nccnc12` [Example 70, 8-[(3S,4R)-3-(1-oxa-4,9-diazaspiro[5.5]undecan-9-ylmethyl)-4-(trifluoromethyl)pyrrolidin-1-yl]quinoxaline-5-carbonitrile], the IC50 came out at 253 nM.

With `N#Cc1ccc(N2CC(CN3CCC(N)CC3)C3(CC3)C2)c2nccnc12` (single isomer, unassigned) [Example 68A, 8-[7-[(4-Amino-1-piperidyl)methyl]-5-azaspiro[2.4]heptan-5-yl]quinoxaline-5-carbonitrile], the IC50 stood at 71 nM.
